Results: the supplement of paper PMC10307832

Columns and labels:
Experiment in all cases: relative viability (nuclei count vs DMSO), 5 days (fraction); higher = more cells survive
Ruboxistaurin = compound: CN(C)C[C@@H]1CCn2cc(c3ccccc32)C2=C(C(=O)NC2=O)c2cn(c3ccccc23)CCO1 [Ruboxistaurin]
In short: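 Only plates meeting two conditions passed: control CV below 25% and at least one doubling. Lung cancer cell lines, kept overnight at 37 °C in 1536-well plates, were pinned with five library-drug doses (not always all listed) √10 apart on vehicle-anchored plates and grown 5 days without medium change. A one-step fix, permeabilisation and Hoechst stain preceded 4× imaging and MetaXpress nuclear counting. Viability equals treated-well nuclei divided by vehicle-well nuclei, as the median over plates.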

[1] = compound: CN(C)C[C@@H]1CCn2cc(c3ccccc32)C2=C(C(=O)NC2=O)c2cn(c3ccccc23)CCO1 [Ruboxistaurin] + C[C@@H](Oc1cc(-c2cnn(C3CCNCC3)c2)cnc1N)c1c(Cl)ccc(F)c1Cl [Crizotinib] (partner 1 µM)
In short: (§1)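 Lung cancer cell lines in 1536-well plates got either a single drug or a fixed anchor-drug dose together with five library-drug doses (not always all listed) in √10 steps, by pin tool, on the day after seeding. Nuclei were counted after 5 days, and relative viability is the treated-to-vehicle ratio of nuclei counts. Values are medians of duplicate plates.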

[2] = compound: CN(C)C[C@@H]1CCn2cc(c3ccccc32)C2=C(C(=O)NC2=O)c2cn(c3ccccc23)CCO1 [Ruboxistaurin] + Cc1nc(NC(=O)N2CCC[C@H]2C(N)=O)sc1-c1ccnc(C(C)(C)C(F)(F)F)c1 [Alpelisib] (partner 2 µM)
In short: as §1

[3] = compound: CN(C)C[C@@H]1CCn2cc(c3ccccc32)C2=C(C(=O)NC2=O)c2cn(c3ccccc23)CCO1 [Ruboxistaurin] + Cc1nc(Nc2ncc(C(=O)Nc3c(C)cccc3Cl)s2)cc(N2CCN(CCO)CC2)n1 [Dasatinib] (partner 0.075 µM)
In short: as §1

Ruboxistaurin + Olaparib = compound: CN(C)C[C@@H]1CCn2cc(c3ccccc32)C2=C(C(=O)NC2=O)c2cn(c3ccccc23)CCO1 [Ruboxistaurin] + O=C(c1cc(Cc2n[nH]c(=O)c3ccccc23)ccc1F)N1CCN(C(=O)C2CC2)CC1 [Olaparib] (partner 8 µM)
In short: as §1

| Cell Line | relative viability (Ruboxistaurin; 0.08 µM) | relative viability (Ruboxistaurin; 0.8 µM) | relative viability (Ruboxistaurin; 2.53 µM) | relative viability (Ruboxistaurin; 8 µM) | relative viability ([1]; first compound 0.08 µM) | relative viability ([1]; first compound 0.8 µM) | relative viability ([1]; first compound 2.53 µM) | relative viability ([1]; first compound 8 µM) | relative viability ([2]; first compound 0.08 µM) | relative viability ([2]; first compound 0.8 µM) | relative viability ([2]; first compound 2.53 µM) | relative viability ([2]; first compound 8 µM) | relative viability ([3]; first compound 0.08 µM) | relative viability ([3]; first compound 0.8 µM) | relative viability ([3]; first compound 2.53 µM) | relative viability ([3]; first compound 8 µM) | relative viability (Ruboxistaurin + Olaparib; first compound 0.08 µM) | relative viability (Ruboxistaurin + Olaparib; first compound 0.8 µM) | relative viability (Ruboxistaurin + Olaparib; first compound 2.53 µM) | relative viability (Ruboxistaurin + Olaparib; first compound 8 µM) |
| --- | --- | --- | --- | --- | --- | --- | --- | --- | --- | --- | --- | --- | --- | --- | --- | --- | --- | --- | --- | --- |
| 201T | 1.03 | 0.98 | 1.01 | 0.973 | 1.05 | 0.972 | 1.08 | 1.05 | 1.03 | 1.01 | 1.01 | 1.01 | 0.572 | 0.536 | 0.603 | 0.559 | 0.821 | 0.837 | 0.852 | 0.909 |
| A549 | 1.05 | 0.9 | 1 | 0.83 | 0.751 | 0.631 | 0.862 | 0.679 | 0.75 | 0.562 | 0.944 | 0.501 |  |  |  |  | 0.27 | 0.273 | 0.415 | 0.381 |
| A-427 | 0.997 | 0.871 | 0.924 | 0.821 | 1.01 | 0.676 | 0.911 | 0.732 | 1.07 | 0.996 | 1.02 | 0.874 | 0.677 | 0.639 | 0.675 | 0.374 | 0.728 | 0.672 | 0.558 | 0.534 |
| ABC-1 | 1.16 | 0.951 | 1.16 | 0.89 | 1.41 | 0.45 | 1.29 | 0.784 | 1.35 | 1.13 | 1.07 | 0.839 | 0.638 | 0.56 | 0.633 | 0.465 | 1.27 | 0.81 | 1.03 | 1.15 |
| BEN | 1.05 | 0.902 | 0.877 | 0.857 | 0.92 | 0.818 | 0.894 | 0.658 | 1.06 | 1.07 | 0.973 | 0.787 | 0.316 | 0.297 | 0.307 | 0.298 | 1.31 | 0.903 | 1.34 | 0.888 |
| CAL-12T | 1.15 | 0.879 | 1.03 | 1.09 | 0.585 | 0.491 | 0.751 | 0.746 | 1.47 | 1.17 | 1.27 | 1.13 | 0.339 | 0.324 | 0.301 | 0.28 | 0.749 | 0.704 | 0.901 | 0.751 |
| COR-L23 | 1.1 | 0.955 | 1.14 | 1.17 | 0.725 | 0.621 | 0.689 | 0.777 | 0.804 | 0.814 | 0.73 | 0.695 | 0.489 | 0.399 | 0.549 | 0.602 | 0.409 | 0.377 | 0.387 | 0.326 |
| COR-L 105 | 1.08 | 0.803 | 0.949 | 0.782 | 0.8 | 0.828 | 0.868 | 0.664 | 1.17 | 1.09 | 0.911 | 0.706 | 0.352 | 0.236 | 0.362 | 0.262 | 0.802 | 0.597 | 0.707 | 0.677 |
| ChaGo-K-1 | 1.06 | 0.976 | 1.06 | 0.961 | 1.21 | 1.05 | 1.11 | 1.2 |  |  |  |  | 0.564 | 0.611 | 0.636 | 0.478 | 0.431 | 0.39 | 0.433 | 0.444 |
| EKVX | 1.06 | 0.928 | 1.02 | 0.884 | 1.09 | 0.989 | 0.983 | 0.895 | 0.998 | 0.807 | 0.858 | 0.745 | 0.641 | 0.476 | 0.551 | 0.579 | 0.923 | 0.692 | 0.929 | 0.861 |
| EMC-BAC-2 | 1.05 | 0.957 | 0.95 | 0.84 | 0.741 | 0.713 | 0.715 | 0.68 | 0.75 | 0.703 | 0.733 | 0.612 | 0.328 | 0.262 | 0.256 | 0.138 | 0.509 | 0.453 | 0.463 | 0.481 |
| EPLC-272H | 1.12 | 0.794 | 0.928 | 0.857 | 0.926 | 0.793 | 0.917 | 0.932 | 1.1 | 0.807 | 0.901 | 0.846 | 0.354 | 0.371 | 0.342 | 0.282 | 0.846 | 0.71 | 0.918 | 0.437 |
| H3255 | 1.09 | 0.919 | 0.99 | 0.99 | 1.01 | 0.835 | 0.89 | 0.809 | 0.738 | 0.698 | 0.654 | 0.521 | 0.495 | 0.353 | 0.347 | 0.335 | 0.613 | 0.574 | 0.592 | 0.655 |
| HARA | 0.978 | 0.918 | 0.976 | 0.929 | 1.07 | 0.919 | 1.18 | 1.03 | 1.05 | 0.797 | 0.914 | 0.481 | 0.216 | 0.232 | 0.228 | 0.3 | 1.01 | 0.895 | 0.819 | 0.538 |
| HCC-15 | 1.06 | 0.953 | 1.07 | 1.04 | 0.815 | 0.794 | 0.754 | 0.845 | 0.867 | 0.714 | 0.909 | 0.743 | 0.683 | 0.593 | 0.489 | 0.518 | 0.792 | 0.651 | 0.777 | 0.867 |
| HCC-44 | 1.01 | 0.979 | 1.01 | 1.07 | 0.756 | 0.674 | 0.867 | 0.853 | 0.765 | 0.715 | 0.831 | 0.755 |  |  |  |  | 0.978 | 0.942 | 0.983 | 1.04 |
